Measurements taken from article PMC4229119, “Alzheimer's Therapeutics Targeting Amyloid Beta 1–42 Oligomers II: Sigma-2/PGRMC1 Receptors Mediate Abeta 42 Oligomer Binding and Synaptotoxicity” (PLoS ONE, 2014).

Key:
sigma-2/PGRMC1 receptor = target: T1, sigma-2/PGRMC1 receptor (Homo sapiens, UniProt Q5BJF2); assay: Sigma-2 radioligand binding ([3H]DTG competition, Jurkat cell membranes; Cerep 0148); settings: homogenates of a human T cell line; mean ± S.E.M.; read-out: Ki, displacement of selective radioligand [3H]-DTG from sigma-2/PGRMC1 receptor
T1 construct: host or cells: Jurkat cell membranes
Experimental: Radioligand competition assays were performed in membranes from Jurkat cells using 5 nM [^3H]1,3-di(2-tolyl) guanidine in the presence of 1 µM (+)-pentazocine with 10 µM haloperidol to define non-specific binding.

[1] = target: T2, sigma-2/PGRMC1 receptors in human brain (Homo sapiens, UniProt Q5BJF2); assay: Quantitative autoradiography, radioligand displacement from human frontal cortex sections; settings: serial sections of unfixed frozen cognitively normal elderly human frontal cortex; 10-10,000 nM compound; N = 4; read-out: Ki at the [125I]RHM-1 binding site, human frontal cortex
T2 construct: serial sections of unfixed frozen cognitively normal elderly human frontal cortex; from tissue; host or cells: human frontal cortex, unfixed frozen sections
Experimental: Quantitative autoradiography studies on frozen unfixed serial tissue sections from normal (N = 4) or Alzheimer's disease (N = 4) postmortem patients' neocortex were conducted and quantified according to previously published procedures [40]. [^3H](+) pentazocine was used as the radioligand for sigma-1 receptors and [^125I]RHM-1 (American Radiolabelled Chemicals, Inc.) or [^3H]DTG (1,3-Di-(2-tolyl)guanidine (Perkin Elmer) in the presence of 1 µM (+) pentazocine for sigma-2 receptors [32]. Human brain samples for these studies were obtained with written consent as previously published [40].

caspase-3/7 [2] = assay: Caspase-3/7 activation in primary hippocampal/cortical cultures; type: cell-based, rat; settings: for activation of caspase-3/7: primary hippocampal/cortical cultures
Experimental: (§1) Little is known about the functional pharmacology of ligands for the sigma-2/PGRMC1 receptor. […] Finally, we treated hippocampal and cortical cultures with ascending concentrations of SV119 to induce caspase activation, in the presence of 40 µM of each of the sigma-2/PGRMC1 antagonists CT0109, CT0093 and RHM-1 ( Fig. 8E ).

caspase-3/7 [3] = assay: Caspase-3/7 activation in SKOV-3 tumor cell line; type: cell-based, human
[4] = system: primary hippocampal/cortical cultures; assay: Cell death in mature primary neuronal cultures; type: cell-based, rat
[5] = system: SKOV-3 human ovarian cancer cells; assay: Cell death in SKOV-3 human ovarian cancer cells; type: cell-based
caspase-3/7 [6] = assay: SV119-induced caspase-3/7 activation in hippocampal and cortical cultures, co-treatment with antagonists; type: cell-based, rat; settings: for block of the activation of caspase-3/7 by SV119: 40 µM antagonist, ascending concentrations of SV119, hippocampal and cortical cultures
Experimental: as §1

Sigma-1 = target: T3, Sigma-1 (Homo sapiens, UniProt Q99720); assay: Cerep panel: Sigma-1 radioligand binding; settings: Cerep 0889
T3 construct: purchased Cerep/Eurofins, Inc. 0889
Experimental: (§2) Active CogRx molecules were counterscreened for activity at 100 central nervous system receptors and enzymes (including those involved in neurotransmission and synaptic plasticity) in industry-standard assays measuring radioligand binding displacement and signaling activity (assays performed at Cerep/Eurofins, Inc., Table S1). […] To determine if these compounds were capable of displacing binding to sigma-2/PGRMC1 receptors in human brain, CT0093 and CT0109 were added in increasing concentrations to serial sections of unfixed frozen cognitively normal elderly human frontal cortex in the presence of a specific radioligand for sigma-2/PGRMC1, ^125I-RHM-4 [31] ( Fig. 1 B–D ).

mu opioid = target: T4, mu opioid (Homo sapiens, UniProt P35372); assay: Cerep panel: mu opioid radioligand binding; settings: Cerep 0118
T4 construct: purchased Cerep/Eurofins, Inc. 0118
Experimental: as §2

Na^+ Channel (site2) = assay: Cerep panel: Na+ Channel (site2) radioligand binding; settings: Cerep 0169
Experimental: as §2

Dopamine 3 = target: T5, Dopamine 3 (Homo sapiens, UniProt P35462); assay: Cerep panel: Dopamine 3 agonist activity; type: cell-based; settings: Cerep 0683
T5 construct: purchased Cerep/Eurofins, Inc
Experimental: as §2

[7] = system: mixed cultures of hippocampal plus cortical neurons and glia; design: method as in PMID 25390368; settings: cited from earlier work
synapses = system: synapses; design: method as in PMID 25390368; settings: cited from earlier work
[8] = system: mouse models of Alzheimer's disease; design: method as in PMID 25390368; settings: cited from earlier work
[9] = target: hippocampal and cortical neurons; assay: Abeta binding assay (Abeta oligomer binding to synaptic puncta of cultured neurons); type: cell-based, rat
Experimental: To assess the ability of test compounds to prevent the binding of Abeta oligomers, cultures were treated with compounds for 30 minutes, followed by synthetic Abeta 1–42 oligomer preparation treatment for 60 min (total Abeta concentration 0.5 µM, equivalent to Kd concentration). Alternatively, displacement of prebound oligomers was evaluated by adding oligomers 60 min prior to the addition of compounds, followed by additional 30 minutes incubation. […]
Neuronal cultures were treated with either a mixture of 4 siRNAs targeted against PGRMC1 (GUCUAGGUCUUGGAUAAUA, GGUUUUACCUCAAAUCAGA, UUAGAAUGCAUGAUGUGUU, CUUCUAUCUGUAGUUAAAA, catalog number A-095365-00-0050) or a non-targeting sequence (UGGUUUACAUGUUUUCCUA, catalog number D-001910-03-50, Accell, ThermoFisher). siRNA were resuspended to 100 µM in RNase free water, shaken for 1.5 hours at 37°C, diluted in media and applied to cells at 1 or 2 uM for 48 hours prior to addition of Abeta oligomers for 30 minutes. Cultures were then fixed and co-immunolabeled with 6E10 antibody to detect Abeta and antibody to detect PGRMC1 as described above and analyzed via automated image processing as described above. For PGRMC1 measurements, total intensity in cell bodies was measured. […]

sigma-2/PGRMC1 = assay: Immunofluorescent sigma-2/PGRMC1 expression in neuronal cultures; type: cell-based, rat; settings: for increase of total intensity of sigma-2/PGRMC1 expression in the cell body: 400 nM Abeta oligomers, pooled neurons and glia, vs vehicle
Experimental: To assess the ability of test compounds to prevent the binding of Abeta oligomers, cultures were treated with compounds for 30 minutes, followed by synthetic Abeta 1–42 oligomer preparation treatment for 60 min (total Abeta concentration 0.5 µM, equivalent to Kd concentration). Alternatively, displacement of prebound oligomers was evaluated by adding oligomers 60 min prior to the addition of compounds, followed by additional 30 minutes incubation. Cells were fixed with 3.75% formaldehyde for 15 min, blocked with 5% normal goat serum and 0.5% Triton X-100 and incubated with primary antibodies for Abeta (1 µg/ml 6E10 or 4G8, Covance catalog numbers SIG-39320 and SIG-39330, respectively), MAP-2 (0.2 µg/ml Chemicon), Synaptophysin-1 (1 µg/ml, Anaspec), glial fibrillary acidic protein (GFAP, 1 µg/ml, Thermo-Fisher) and fluorescently labeled secondary antibodies (2 µg/ml, Invitrogen). Images were acquired on a Cellomics VTi automated microscope with a 20X, 0.75 NA objective and analyzed using ThermoFisher/Cellomics Neuronal Profiling bioapplication set to measure punctate labeling of Abeta and synaptophysin-1 along MAP-2 labeled neurites. For each replicate experiment, at least 100 neurons were sampled from 4 replicate wells for each experimental condition (400 to 500 neurons per experimental condition). […]
Neuronal cultures were treated with either a mixture of 4 siRNAs targeted against PGRMC1 (GUCUAGGUCUUGGAUAAUA, GGUUUUACCUCAAAUCAGA, UUAGAAUGCAUGAUGUGUU, CUUCUAUCUGUAGUUAAAA, catalog number A-095365-00-0050) or a non-targeting sequence (UGGUUUACAUGUUUUCCUA, catalog number D-001910-03-50, Accell, ThermoFisher). siRNA were resuspended to 100 µM in RNase free water, shaken for 1.5 hours at 37°C, diluted in media and applied to cells at 1 or 2 uM for 48 hours prior to addition of Abeta oligomers for 30 minutes. Cultures were then fixed and co-immunolabeled with 6E10 antibody to detect Abeta and antibody to detect PGRMC1 as described above and analyzed via automated image processing as described above. For PGRMC1 measurements, total intensity in cell bodies was measured.

T3 sequence (Q99720 whole entry): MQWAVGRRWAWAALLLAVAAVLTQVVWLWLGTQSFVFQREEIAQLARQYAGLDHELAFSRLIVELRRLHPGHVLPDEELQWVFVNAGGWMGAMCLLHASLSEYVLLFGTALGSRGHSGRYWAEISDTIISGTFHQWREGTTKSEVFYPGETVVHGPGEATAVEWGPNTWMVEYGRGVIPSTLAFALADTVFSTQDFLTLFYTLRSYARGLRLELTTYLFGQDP
T1 sequence (Q5BJF2 whole entry): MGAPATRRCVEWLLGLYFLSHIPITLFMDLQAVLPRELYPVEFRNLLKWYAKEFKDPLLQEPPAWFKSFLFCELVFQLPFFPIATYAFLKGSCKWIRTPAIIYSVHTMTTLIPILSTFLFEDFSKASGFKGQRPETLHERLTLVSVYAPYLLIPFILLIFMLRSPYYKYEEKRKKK
T2 sequence (Q5BJF2 whole entry): as above
T4 sequence (P35372 whole entry): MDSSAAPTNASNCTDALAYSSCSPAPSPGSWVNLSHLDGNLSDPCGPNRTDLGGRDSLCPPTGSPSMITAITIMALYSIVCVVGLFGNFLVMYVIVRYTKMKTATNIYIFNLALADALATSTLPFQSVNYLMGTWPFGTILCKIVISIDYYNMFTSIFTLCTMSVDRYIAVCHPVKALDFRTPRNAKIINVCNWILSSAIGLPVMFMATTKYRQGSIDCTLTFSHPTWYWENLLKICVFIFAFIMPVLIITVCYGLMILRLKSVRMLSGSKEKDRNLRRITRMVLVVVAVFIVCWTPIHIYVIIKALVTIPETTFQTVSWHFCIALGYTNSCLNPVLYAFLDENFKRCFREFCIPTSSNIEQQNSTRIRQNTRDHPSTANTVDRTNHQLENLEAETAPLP
T5 sequence (P35462 whole entry): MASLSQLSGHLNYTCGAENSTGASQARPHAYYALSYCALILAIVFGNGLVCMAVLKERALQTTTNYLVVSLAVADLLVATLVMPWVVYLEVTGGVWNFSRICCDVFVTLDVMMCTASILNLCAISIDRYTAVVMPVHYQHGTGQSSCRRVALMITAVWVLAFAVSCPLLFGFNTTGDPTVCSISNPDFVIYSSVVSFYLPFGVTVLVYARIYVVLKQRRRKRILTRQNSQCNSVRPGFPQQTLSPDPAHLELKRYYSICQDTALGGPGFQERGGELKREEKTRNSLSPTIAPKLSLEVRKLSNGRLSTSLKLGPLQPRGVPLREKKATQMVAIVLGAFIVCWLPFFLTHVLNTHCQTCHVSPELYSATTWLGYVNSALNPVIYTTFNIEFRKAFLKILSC

Molecule	activation of caspase-3/7 (caspase-3/7 [2])	activation of caspase-3/7 (caspase-3/7 [3])	concentrations at which cell viability is affected [4] [µM]	concentrations at which cell viability is affected [5] [µM]	block of the activation of caspase-3/7 by SV119 (caspase-3/7 [6])	dose-dependent cell death [4]	dose-dependent cell death [5]	other results
COc1cc(CCC(C)NCc2ccc(C(F)(F)F)cc2)ccc1O (centres unmarked) [CT0109]	did not	did not	> 100	> 100	significantly blocked the activation of caspase-3/7 by SV119	–	–	Ki (sigma-2/PGRMC1 receptor): 9 ± 7 nM; Ki [1]: 57 ± 23 nM; Ki (Sigma-1): 500 nM; Ki (mu opioid): 1700 nM; Ki (Na^+ Channel (site2)): 2000 nM; EC50 (Dopamine 3): 4100 nM; reversal of Abeta oligomer-mediated trafficking deficits [7]: reverse Abeta oligomer-mediated trafficking deficits; restoration of synapses (synapses): restore synapses to normal; restoration of cognitive function [8]: restore cognitive function
COc1cc2c(cc1OC)CN(CCCCNC(=O)c1cc(C)ccc1OC)CC2 [RHM-1]	did not	did not	> 100	> 100	did not	–	–	–
COc1ccc(C)cc1NC(=O)OC1C[C@H]2CCC[C@@H](C1)N2CCCCCCN (some centres unmarked) [SV-119]	–	–	–	–	–	caused dose-dependent cell death	caused dose-dependent cell death	activation of caspase 3/7 (caspase-3/7 [6]; 20 to 80 µM for 24 hours, hippocampal and cortical cells, p<0.05 vs control): induced the activation of caspase 3/7
Fc1ccc(-n2cc(CCCCN3CCC4(CC3)OCc3ccccc34)c3ccccc32)cc1 [siramesine]	activated caspase-3/7	activated caspase-3/7	–	–	–	caused dose-dependent cell death	caused dose-dependent cell death	–
Abeta oligomers: synthetic Abeta 1–42 oligomer preparation	–	–	–	–	–	–	–	oligomer-induced caspase activation (caspase-3/7 [2]; 21 DIV primary hippocampal and cortical neuronal cultures, 3–48 hours, up to 28 uM): unable to detect oligomer-induced caspase activation; Kd ([9]; specific and saturable binding, read-out: Kd, binding to a single receptor site on neuronal synaptic puncta): 518 ± 41 nM; increase of total intensity of sigma-2/PGRMC1 expression in the cell body (sigma-2/PGRMC1; 24 hours): 13%; increase of total intensity of sigma-2/PGRMC1 expression in the cell body (sigma-2/PGRMC1; 48 hours): 28%
Non-targeting siRNA: non-targeting sequence UGGUUUACAUGUUUUCCUA, catalog number D-001910-03-50 (further chemistry not given here) [reference compound]	–	–	–	–	–	–	–	reduction in Abeta oligomer binding ([9]; siRNA 1 or 2 µM, 48 hours, then Abeta oligomers 30 minutes, vs untreated cultures): has no effect; reduction in immunocytochemically detectable sigma-2/PGRMC1 protein in neuronal cell body and synaptic puncta (sigma-2/PGRMC1; siRNA 1 or 2 µM, 48 hours, vs untreated cultures): has no effect
